In ChEMBL document CHEMBL4229546, “Structure-based design and synthesis of 1H-pyrazolo[3,4-d]pyrimidin-4-amino derivatives as Janus kinase 3 inhibitors” (Bioorg Med Chem, 2018):

Legend:
[1] = target: Tyrosine-protein kinase JAK1 (Homo sapiens, UniProt P23458)
[2] = target: Non-receptor tyrosine-protein kinase TYK2 (Homo sapiens, UniProt P29597)
[3] = target: Tyrosine-protein kinase BTK (Homo sapiens, UniProt Q06187)
Sequence of Tyrosine-protein kinase BTK (Q06187 whole entry): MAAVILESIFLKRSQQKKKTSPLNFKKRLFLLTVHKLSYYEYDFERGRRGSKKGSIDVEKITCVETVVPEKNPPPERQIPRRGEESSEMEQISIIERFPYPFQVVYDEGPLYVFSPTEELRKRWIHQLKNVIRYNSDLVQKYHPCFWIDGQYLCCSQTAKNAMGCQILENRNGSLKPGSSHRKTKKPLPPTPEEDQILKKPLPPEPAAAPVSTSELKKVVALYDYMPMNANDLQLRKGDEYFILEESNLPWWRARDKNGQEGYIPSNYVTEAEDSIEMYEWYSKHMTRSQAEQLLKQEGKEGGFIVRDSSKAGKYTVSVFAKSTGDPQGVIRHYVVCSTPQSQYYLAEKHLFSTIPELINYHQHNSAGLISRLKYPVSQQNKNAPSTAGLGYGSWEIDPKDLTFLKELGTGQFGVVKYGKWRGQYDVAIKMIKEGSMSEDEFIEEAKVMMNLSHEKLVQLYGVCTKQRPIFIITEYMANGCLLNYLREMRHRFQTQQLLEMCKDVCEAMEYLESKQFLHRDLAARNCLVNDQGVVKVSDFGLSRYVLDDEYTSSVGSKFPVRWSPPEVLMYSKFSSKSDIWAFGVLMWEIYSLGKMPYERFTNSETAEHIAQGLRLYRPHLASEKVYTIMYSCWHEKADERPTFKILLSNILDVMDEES

Sequence of Non-receptor tyrosine-protein kinase TYK2 (P29597 whole entry): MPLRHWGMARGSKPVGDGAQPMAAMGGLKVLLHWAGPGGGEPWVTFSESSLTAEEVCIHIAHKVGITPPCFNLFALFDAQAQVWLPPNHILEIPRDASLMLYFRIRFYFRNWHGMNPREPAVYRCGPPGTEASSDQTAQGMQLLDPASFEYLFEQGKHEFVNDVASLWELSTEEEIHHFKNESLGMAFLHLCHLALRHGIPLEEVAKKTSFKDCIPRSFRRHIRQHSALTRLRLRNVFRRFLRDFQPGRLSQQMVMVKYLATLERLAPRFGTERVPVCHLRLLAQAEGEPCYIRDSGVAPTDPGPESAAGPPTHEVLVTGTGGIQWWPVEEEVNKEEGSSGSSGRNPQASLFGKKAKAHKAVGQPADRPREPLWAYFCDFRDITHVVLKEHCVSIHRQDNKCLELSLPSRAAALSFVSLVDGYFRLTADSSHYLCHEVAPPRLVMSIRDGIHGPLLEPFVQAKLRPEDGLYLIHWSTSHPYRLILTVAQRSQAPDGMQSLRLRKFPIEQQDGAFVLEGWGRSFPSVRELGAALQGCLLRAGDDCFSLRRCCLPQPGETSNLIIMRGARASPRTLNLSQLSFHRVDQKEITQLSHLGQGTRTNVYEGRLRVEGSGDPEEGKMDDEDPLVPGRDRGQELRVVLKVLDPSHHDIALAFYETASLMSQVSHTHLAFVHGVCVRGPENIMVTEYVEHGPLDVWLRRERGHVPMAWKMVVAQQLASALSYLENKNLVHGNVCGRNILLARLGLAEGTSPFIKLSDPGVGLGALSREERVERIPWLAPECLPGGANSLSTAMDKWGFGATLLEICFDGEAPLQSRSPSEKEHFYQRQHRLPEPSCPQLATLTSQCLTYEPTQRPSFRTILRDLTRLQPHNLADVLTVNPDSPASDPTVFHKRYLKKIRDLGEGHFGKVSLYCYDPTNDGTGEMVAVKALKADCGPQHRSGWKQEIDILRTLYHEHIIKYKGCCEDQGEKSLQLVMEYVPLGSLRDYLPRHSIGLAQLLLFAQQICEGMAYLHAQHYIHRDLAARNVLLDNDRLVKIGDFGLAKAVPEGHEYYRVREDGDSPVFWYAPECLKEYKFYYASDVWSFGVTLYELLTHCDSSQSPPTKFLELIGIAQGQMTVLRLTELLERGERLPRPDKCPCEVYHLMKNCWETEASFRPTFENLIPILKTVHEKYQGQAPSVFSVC
Sequence of Tyrosine-protein kinase JAK1 (P23458 whole entry): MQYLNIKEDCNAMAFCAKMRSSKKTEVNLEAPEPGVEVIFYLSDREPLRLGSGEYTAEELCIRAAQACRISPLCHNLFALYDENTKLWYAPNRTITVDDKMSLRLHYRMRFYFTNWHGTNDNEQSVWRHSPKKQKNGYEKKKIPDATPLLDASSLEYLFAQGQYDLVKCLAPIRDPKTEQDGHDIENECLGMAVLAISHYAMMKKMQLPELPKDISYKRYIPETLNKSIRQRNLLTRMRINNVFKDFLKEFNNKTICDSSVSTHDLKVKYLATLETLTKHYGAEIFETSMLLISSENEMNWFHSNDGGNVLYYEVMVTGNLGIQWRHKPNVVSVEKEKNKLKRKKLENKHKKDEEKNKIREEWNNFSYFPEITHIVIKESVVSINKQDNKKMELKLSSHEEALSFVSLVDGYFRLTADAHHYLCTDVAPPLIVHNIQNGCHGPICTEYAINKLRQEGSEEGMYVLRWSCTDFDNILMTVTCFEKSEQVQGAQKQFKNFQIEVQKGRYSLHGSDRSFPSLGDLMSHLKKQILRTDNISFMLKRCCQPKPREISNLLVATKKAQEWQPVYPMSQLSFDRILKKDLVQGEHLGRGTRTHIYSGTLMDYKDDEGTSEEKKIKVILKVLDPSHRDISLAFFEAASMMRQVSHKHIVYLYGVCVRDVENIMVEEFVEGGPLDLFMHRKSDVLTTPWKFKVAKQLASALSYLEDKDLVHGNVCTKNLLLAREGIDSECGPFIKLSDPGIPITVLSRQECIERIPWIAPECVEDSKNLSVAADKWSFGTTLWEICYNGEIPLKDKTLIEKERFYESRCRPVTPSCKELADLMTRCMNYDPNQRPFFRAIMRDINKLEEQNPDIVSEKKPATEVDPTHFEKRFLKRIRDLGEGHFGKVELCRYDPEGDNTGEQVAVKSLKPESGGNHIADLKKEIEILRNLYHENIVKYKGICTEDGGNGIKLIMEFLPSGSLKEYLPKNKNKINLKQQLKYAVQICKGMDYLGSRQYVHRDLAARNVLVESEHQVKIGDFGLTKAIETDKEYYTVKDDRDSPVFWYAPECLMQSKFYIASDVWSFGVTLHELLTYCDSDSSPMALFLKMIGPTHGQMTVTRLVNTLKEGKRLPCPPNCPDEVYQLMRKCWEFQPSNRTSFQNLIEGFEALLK

Row | IC50 [1] | IC50 [2] | IC50 [3] | SMILES
1 | 2290 nM |  |  | CN(C)CC(=O)N1CCCC(Cn2nc(-c3cnn(C)c3)c3c(N)ncnc32)C1 (stereo not given)
2 | 497 nM | 3220 nM |  | COCCn1cc(-c2nn(C3CCCN(C(=O)CC#N)C3)c3ncnc(N)c23)cn1 (stereo not given)
3 | 147 nM | 2350 nM |  | Cn1cc(-c2nn(CC3CCCN(C(=O)CC#N)C3)c3ncnc(N)c23)cn1 (stereo not given)
4 | 165 nM |  |  | Cn1cc(-c2nn(C3CCN(C#N)CC3)c3ncnc(N)c23)cn1
5 | 1370 nM |  |  | CN(C)CC(=O)N1CCCC(n2nc(-c3cnn(C)c3)c3c(N)ncnc32)C1 (stereo not given)
6 | 1950 nM | 3960 nM | 481 nM | C=CC(=O)N1CCCC(Cn2nc(-c3cnn(C)c3)c3c(N)ncnc32)C1 (stereo not given)
7 | 618 nM | 1180 nM | 180 nM | C=CC(=O)N1CCCC(n2nc(-c3cnn(C)c3)c3c(N)ncnc32)C1 (stereo not given)
8 | 497 nM | > 3000 nM |  | COCCn1cc(-c2nn(CC3CCCN(C(=O)CC#N)C3)c3ncnc(N)c23)cn1 (stereo not given)
9 | 1070 nM | 1720 nM | 126 nM | C=CC(=O)N1CCC(n2nc(-c3cnn(CCOC)c3)c3c(N)ncnc32)C1 (stereo not given)
10 | 342 nM | 2430 nM |  | Cn1cc(-c2nn(C3CCCN(C(=O)CC#N)C3)c3ncnc(N)c23)cn1 (stereo not given)
11 | 112 nM |  |  | COCCn1cc(-c2nn(C3CCN(C#N)CC3)c3ncnc(N)c23)cn1
12 | 694 nM | 1420 nM | 203 nM | C=CC(=O)N1CCC(n2nc(-c3cnn(C)c3)c3c(N)ncnc32)C1 (stereo not given)
13 | 1350 nM | 2120 nM | 159 nM | C=CC(=O)N1CCCC(n2nc(-c3cnn(CCOC)c3)c3c(N)ncnc32)C1 (stereo not given)
14 | 1670 nM | 3300 nM | 420 nM | C=CC(=O)N1CCCC(Cn2nc(-c3cnn(CCOC)c3)c3c(N)ncnc32)C1 (stereo not given)
